Key:
HSP47 = assay: Amount of HSP47 produced in human cancer cell lines after substance treatment and heat shock, western blotting; format: cell-based; parameters: key to amounts of HSP47 produced: ↓: means that the amounts of HSP47 produced were reduced by the flavonoid-treatment in comparison with the control tests; conditions: for amounts of HSP47 produced: vs control
mouse = conditions: in vivo, iv; cited from earlier work
mice [1] = conditions: mouse, in vivo, po
mice [2] = assay: Acute toxicity test for mice by oral administration
[3] = colon cancer cell line COLO 205, 100 µM in the medium
[4] = uterus cancer cell line HeLa S3, 100 µM in the medium
[5] = neuroblastoma cell line SK-N-MC, 100 µM in the medium

Compound: O=c1c(O)c(-c2ccc(O)c(O)c2)oc2cc(O)cc(O)c12 [quercetin, 2-(3,4-dihydroxyphenyl)-3,5,7-trihydroxy-4H-1-benzopyran-4-one]
- amounts of HSP47 produced (HSP47; [3]): ↓
- amounts of HSP47 produced (HSP47; kidney cancer cell line ACHN, 100 µM in the medium): ↓
- amounts of HSP47 produced (HSP47; [4]): ↓

Compound: O=c1cc(-c2ccccc2)oc2cc(O)c(O)c(O)c12 [baicalein, 5,6,7-trihydroxy-2-phenyl-4H-1-benzopyran-4-one]
- amounts of HSP47 produced (HSP47; uterus cancer cell line HeLa S3, 10 µM in the medium): ↓

Compound: (+) -Catechin
- amounts of HSP47 produced (HSP47; [3]): ↓
- amounts of HSP47 produced (HSP47; lung cancer cell line H69, 100 µM in the medium): ↓
- amounts of HSP47 produced (HSP47; [5]): ↓
- amounts of HSP47 produced (HSP47; [4]): ↓

Compound: COc1cc(C=CC(=O)O)ccc1O [ferulic acid, 4-hydroxy-3-methoxycinnamic acid]
- HSP47 production (HSP47; uterus cancer cell line HeLa S3, final concentration 100 µM): inhibits the HSP47 production

Compound: Cc1c(C)c2c(c(C)c1O)CCC(C)(CCCC(C)CCCC(C)CCCC(C)C)O2 (stereo not drawn) [α-tocopherol, 3,4-dihydro-2,5,7,8-tetramethyl-2-(4,8,12-trimethyltridecyl)-2H-1-benzopyran-6-ol]
- HSP47 production (HSP47; uterus cancer cell line HeLa S3, final concentration 20 µM): inhibits the HSP47 production

Compound: C[C@@H]1O[C@@H](OC[C@H]2O[C@@H](Oc3c(-c4ccc(O)c(O)c4)oc4cc(O)cc(O)c4c3=O)[C@H](O)[C@@H](O)[C@@H]2O)[C@H](O)[C@H](O)[C@H]1O [rutin, quercetin-3-rutinoside]
- acute toxicity (LD50) (mouse): 950 mg/kg
- amounts of HSP47 produced (HSP47; [5]): ↓

Compound: C[C@@]12C[C@@]3(O)O[C@@H](O1)[C@]1(COC(=O)c4ccccc4)[C@H]3C[C@@]12O[C@@H]1O[C@H](CO)[C@@H](O)[C@H](O)[C@H]1O [paeoniflorin]
- toxicity (mice [1]): does not have toxicity
- death (mice [2]): does hardly cause death
- HSP47 production (HSP47; uterus cancer cell line HeLa S3): inhibits the HSP47 production

— EP0742012A2, “Pharmaceutical composition containing substance inhibiting HSP47 production” (priority 1995, dated 1996)
